US7772263B2, “Compounds for the treatment of inflammatory disorders” (Schering Corporation, priority 2006, dated 2010)

Target: T1, purified catalytic domain of recombinant human TACE (rhTACEc) (Homo sapiens, UniProt P78536, N452Q/S266A)
T1 construct: rhTACEc, Residue 215 to 477 with two mutation (S266A and N4520) and a 6×His tail; 6xHis (C); made in house; host or cells: baculovirus/Hi5 insect cells
Test: TACE kinetic assay, cleavage of internally quenched fluorescent peptide substrate SPDL-3
Assay type: biochemical
Conditions: TACE; class letters A-D; read-out: Ki Rating

T1 sequence (P78536 215-477 S266A/N452Q limits assumed): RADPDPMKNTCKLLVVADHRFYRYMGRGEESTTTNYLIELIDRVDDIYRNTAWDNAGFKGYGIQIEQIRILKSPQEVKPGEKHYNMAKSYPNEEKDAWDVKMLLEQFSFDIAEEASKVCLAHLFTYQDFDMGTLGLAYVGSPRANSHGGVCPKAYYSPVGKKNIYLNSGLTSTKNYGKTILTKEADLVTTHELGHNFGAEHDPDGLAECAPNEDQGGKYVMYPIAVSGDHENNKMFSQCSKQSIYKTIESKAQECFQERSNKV

| Compound | Ki |
| --- | --- |
| COc1ccc2c(c1)C(=O)N(C[C@@]1(C#Cc3ccc4c(cnn4C(C)C)c3)NC(=O)NC1=O)C2 [Compound 1213] | < 5 nM |
| COc1ccc2c(c1)C(=O)N(C[C@@]1(C#Cc3ccc4cnoc4c3)NC(=O)NC1=O)C2 [Compound 1214] | < 5 nM |
| COc1ccc2c(c1)C(=O)N(C[C@@]1(C#Cc3cncc(-c4nnn(C)n4)c3)NC(=O)NC1=O)C2 [Compound 1215] | < 5 nM |
| COc1ccc2c(c1)C(=O)N(C[C@@]1(C#Cc3ccc(N)c(OC(F)(F)F)c3)NC(=O)NC1=O)C2 [Compound 1216] | < 5 nM |
| COc1ccc2c(c1)C(=O)N(C[C@@]1(C#Cc3cc(F)c(F)cc3OC)NC(=O)NC1=O)C2 [Compound 1217] | < 5 nM |
| COc1ccc2c(c1)C(=O)N(C[C@@]1(C#Cc3ccc(F)cc3C#N)NC(=O)NC1=O)C2 [Compound 1218] | < 5 nM |
| COc1ccc2c(c1)C(=O)N(C[C@@]1(C#Cc3cc(C)ccc3C#N)NC(=O)NC1=O)C2 [Compound 1219] | < 5 nM |
| COc1ccc2c(c1)C(=O)N(C[C@@]1(C#Cc3ccc(-c4nnn(C)n4)s3)NC(=O)NC1=O)C2 [Compound 1220A] | < 5 nM |
| COc1ccc2c(c1)C(=O)N(C[C@@]1(C#Cc3ccc(C(C)=O)cc3)NC(=O)NC1=O)C2 [Compound 1220B] | < 5 nM |
| COc1ccc2c(c1)C(=O)N(C[C@@]1(C#Cc3ccc(S(C)(=O)=O)cc3)NC(=O)NC1=O)C2 [Compound 1220C] | > 100 nM |
| COc1ccc2c(c1)C(=O)N(C[C@@]1(C#Cc3ccc4c(c3)NC(=O)C4=O)NC(=O)NC1=O)C2 [Compound 1220D] | < 5 nM |
| COc1ccc2c(c1)C(=O)N(C[C@@]1(C#Cc3ncnc4[nH]ccc34)NC(=O)NC1=O)C2 [Compound 1220E] | < 5 nM |
| COc1ccc2c(c1)C(=O)N(C[C@@]1(C#Cc3cncc(-c4nnn(C(C)C)n4)c3)NC(=O)NC1=O)C2 [Compound 1220] | < 5 nM |
| COc1ccc2c(c1)C(=O)N(C[C@@]1(C#Cc3cccnc3C3CC3)NC(=O)NC1=O)C2 [Compound 1221] | < 5 nM |
| COc1ccc2c(c1)C(=O)N(C[C@@]1(C#Cc3cnccc3C3CC3)NC(=O)NC1=O)C2 [Compound 1222] | < 5 nM |
| COc1ccc2c(c1)C(=O)N(C[C@@]1(C#Cc3ccc(C(N)=O)c([N+](=O)[O-])c3)NC(=O)NC1=O)C2 [Compound 1250] | < 5 nM |
| COc1ccc2c(c1)C(=O)N(C[C@@]1(C#Cc3ccc4c(c3)C(=O)NC4)NC(=O)NC1=O)C2 [Compound 1251] | < 5 nM |
| COc1ccc2c(c1)C(=O)N(C[C@@]1(C#Cc3cccc4c3CNC4=O)NC(=O)NC1=O)C2 [Compound 1252] | < 5 nM |
| COc1ccc2c(c1)C(=O)N(C[C@@]1(C#Cc3ccc4c(c3)CNC4=O)NC(=O)NC1=O)C2 [Compound 1253] | < 5 nM |
| COc1ccc2c(c1)C(=O)N(C[C@@]1(C#Cc3ccc(-c4cncnc4)nc3)NC(=O)NC1=O)C2 [Compound 1254] | < 5 nM |
| COc1ccc2c(c1)C(=O)N(C[C@@]1(C#Cc3cnc(-c4cccnc4)nc3)NC(=O)NC1=O)C2 [Compound 1256C] | < 5 nM |
| COc1ccc2c(c1)C(=O)N(C[C@@]1(C#Cc3ccc(-c4nnc(C)o4)nc3)NC(=O)NC1=O)C2 [Compound 1500] | < 5 nM |

| Compound | Ki |
| --- | --- |
| COc1ccc2c(c1)C(=O)N(C[C@@]1(C#Cc3ccc(-c4nnc(N)o4)nc3)NC(=O)NC1=O)C2 [Compound 1501] | < 5 nM |
| CCNc1nnc(-c2ccc(C#C[C@]3(CN4Cc5ccc(OC)cc5C4=O)NC(=O)NC3=O)cn2)o1 [Compound 1502] | < 5 nM |
| COc1ccc2c(c1)C(=O)N(C[C@@]1(C#Cc3cnc4ccccn34)NC(=O)NC1=O)C2 [Compound 1503] | < 5 nM |
| COc1ccc2c(c1)C(=O)N(C[C@@]1(C#Cc3cnc4ccc(Br)cn34)NC(=O)NC1=O)C2 [Compound 1504] | < 5 nM |
| COc1ccc2c(c1)C(=O)N(C[C@@]1(C#Cc3ccc4nc(C)cn4c3)NC(=O)NC1=O)C2 [Compound 1505] | < 5 nM |
| COc1ccc2c(c1)C(=O)N(C[C@@]1(C#Cc3n[nH]c4ccccc34)NC(=O)NC1=O)C2 [Compound 1506] | < 5 nM |
| COc1ccc2c(c1)C(=O)N(C[C@@]1(C#Cc3cc(F)ccn3)NC(=O)NC1=O)C2 [Compound 1507] | < 5 nM |
| COc1ccc2c(c1)C(=O)N(C[C@@]1(C#Cc3c4ccccc4nn3C)NC(=O)NC1=O)C2 [Compound 1508] | < 5 nM |
| COc1ccc2c(c1)C(=O)N(C[C@@]1(C#Cc3cc(C)ccc3O)NC(=O)NC1=O)C2 [Compound 1509] | < 5 nM |
| COc1ccc2c(c1)C(=O)N(C[C@@]1(C#Cc3cnn4ccccc34)NC(=O)NC1=O)C2 [Compound 1510] | < 5 nM |
| COC(=O)c1cc(C#C[C@]2(CN3Cc4ccc(OC)cc4C3=O)NC(=O)NC2=O)ccn1 [Compound 1511] | < 5 nM |
| COc1ccc2c(c1)C(=O)N(C[C@@]1(C#Cc3ccnc(C(N)=O)c3)NC(=O)NC1=O)C2 [Compound 1512] | < 5 nM |
| COc1ccc2c(c1)C(=O)N(C[C@@]1(C#Cc3ccc(C(N)=O)nc3)NC(=O)NC1=O)C2 [Compound 1513] | < 5 nM |
| COC(=O)c1ccc(C#C[C@]2(CN3Cc4ccc(OC)cc4C3=O)NC(=O)NC2=O)cn1 [Compound 1514] | < 5 nM |
| COc1ccc2c(c1)C(=O)N(C[C@@]1(C#Cc3cnccc3C(N)=O)NC(=O)NC1=O)C2 [Compound 1515] | < 5 nM |
| COC(=O)c1ccncc1C#C[C@]1(CN2Cc3ccc(OC)cc3C2=O)NC(=O)NC1=O [Compound 1516] | < 5 nM |
| CNC(=O)c1ccc(C#C[C@]2(CN3Cc4ccc(OC)cc4C3=O)NC(=O)NC2=O)cn1 [Compound 1517] | < 5 nM |
| COc1ccc2c(c1)C(=O)N(C[C@@]1(C#Cc3ccc(C(=O)NC4CC4)nc3)NC(=O)NC1=O)C2 [Compound 1518] | < 5 nM |
| COc1ccc2c(c1)C(=O)N(C[C@@]1(C#Cc3cc(C)c(=O)n(C)c3)NC(=O)NC1=O)C2 [Compound 1519] | < 5 nM |
| COc1ccc2c(c1)C(=O)N(C[C@@]1(C#Cc3ccc4nnn(C)c4c3)NC(=O)NC1=O)C2 [Compound 1520] | < 5 nM |
| COc1ccc2c(c1)C(=O)N(C[C@@]1(C#Cc3ccc4nc(C(F)(F)F)cn4c3)NC(=O)NC1=O)C2 [Compound 1521] | < 5 nM |

Now from value to molecule:

| Ki | Compound |
| --- | --- |
| < 5 nM | COc1ccc2c(c1)C(=O)N(C[C@@]1(C#Cc3ccc4[nH]nnc4c3)NC(=O)NC1=O)C2 [Compound 1522] |
| < 5 nM | COc1ccc2c(c1)C(=O)N(C[C@@]1(C#Cc3ccc4[nH]ncc4c3)NC(=O)NC1=O)C2 [Compound 1523] |
| < 5 nM | COc1ccc2c(c1)C(=O)N(C[C@@]1(C#Cc3c[nH]c(=O)c(C)c3)NC(=O)NC1=O)C2 [Compound 1524] |
| < 5 nM | CC#CCOc1ccc2c(c1)C(=O)N(C[C@@]1(C#Cc3ccc4cn(C)nc4c3)NC(=O)NC1=O)C2 [Compound 1533] |
| < 5 nM | Cc1cc(COc2ccc3c(c2)C(=O)N(C[C@@]2(C#Cc4cccnc4)NC(=O)NC2=O)C3)c2ccccc2n1 [Compound 1534] |
| 5 to 25 nM | O=C1NC(=O)C(C#Cc2cnc3ccc(Br)cn23)(CN2Cc3ccc(OC(F)F)cc3C2=O)N1 (stereo not shown) [Compound 1535] |
| 5 to 25 nM | COc1ccc2c(c1)C(=O)N(C[C@@]1(C#Cc3ccc(C(=O)NS(C)(=O)=O)cc3)NC(=O)NC1=O)C2 [Compound 1550] |
| < 5 nM | CCS(=O)(=O)NC(=O)c1ccc(C#C[C@]2(CN3Cc4ccc(OC)cc4C3=O)NC(=O)NC2=O)cc1 [Compound 1551] |
| < 5 nM | COc1ccc2c(c1)C(=O)N(C[C@@]1(C#Cc3cncc(C(C)=NO)c3)NC(=O)NC1=O)C2 [Compound 1552] |
| < 5 nM | COc1ccc2c(c1)C(=O)N(C[C@@]1(C#Cc3ccc(CC(C)=NO)cc3)NC(=O)NC1=O)C2 [Compound 1553] |
| < 5 nM | COc1ccc2c(c1)C(=O)N(C[C@@]1(C#Cc3ccc4c(C=NO)c[nH]c4c3)NC(=O)NC1=O)C2 [Compound 1554] |
| < 5 nM | COc1ccc2c(c1)C(=O)N(C[C@@]1(C#Cc3ccc(C4(C)NC(=O)N(C)C4=O)cc3)NC(=O)NC1=O)C2 (stereo partly shown) [Compound 1555] |
| < 5 nM | COc1ccc2c(c1)C(=O)N(C[C@@]1(C#Cc3cccc(C4(C)NC(=O)NC4=O)c3)NC(=O)NC1=O)C2 (stereo partly shown) [Compound 1556] |
| < 5 nM | COc1ccc2c(c1)C(=O)N(C[C@@]1(C#Cc3ccc4c(c3)C(=O)C(=O)N4)NC(=O)NC1=O)C2 [Compound 1557] |
| 5 to 25 nM | COc1ccc2c(c1)C(=O)N(CC1(C#Cc3cccnc3)NC(=O)NC1=O)CC2 (stereo not shown) [Compound 1558] |
| < 5 nM | COc1ccc2c(c1)C(=O)N(C[C@@]1(C#Cc3ccc(C)nc3N)NC(=O)NC1=O)C2 [Compound 1559] |
| < 5 nM | COc1ccc2c(c1)C(=O)N(C[C@@]1(C#Cc3ccc4oc(=O)[nH]c4c3)NC(=O)NC1=O)C2 [Compound 1560] |
| < 5 nM | COc1ccc2c(c1)C(=O)N(C[C@@]1(C#Cc3cncnc3N)NC(=O)NC1=O)C2 [Compound 1561] |
| < 5 nM | COc1ccc2c(c1)C(=O)N(C[C@@]1(C#Cc3ccc(C4(CN)NC(=O)NC4=O)cc3)NC(=O)NC1=O)C2 (stereo partly shown) [Compound 1562] |
| < 5 nM | COc1ccc2c(c1)C(=O)N(C[C@@]1(C#Cc3ccc(F)nc3)NC(=O)NC1=O)C2 [Compound 1563] |
| 5 to 25 nM | COc1ccc2c(c1Br)C(=O)N(CC1(C#Cc3cccnc3)NC(=O)NC1=O)C2 (stereo not shown) [Compound 1564] |
| < 5 nM | CON=C(C)c1ccc(C#C[C@]2(CN3Cc4ccc(OC)cc4C3=O)NC(=O)NC2=O)cc1 [Compound 1565] |
| < 5 nM | COc1ccc2c(c1)C(=O)N(C[C@@]1(C#Cc3ccc4[nH]c(=O)[nH]c(=O)c4c3)NC(=O)NC1=O)C2 [Compound 1566] |
| < 5 nM | COc1ccc2c(c1)C(=O)N(C[C@@]1(C#Cc3cnc(O)nc3N)NC(=O)NC1=O)C2 [Compound 1567] |
| < 5 nM | COc1ccc2c(c1)C(=O)N(C[C@@]1(C#Cc3cnc4c(c3)CCC(=O)N4)NC(=O)NC1=O)C2 [Compound 1568] |

Same assay, conditions: rhTACEc 70 pM, 30 μM SPDL-3, 90 min pre-incubation at 25° C.; read-out: Ki (nM), TACE inhibitory activity

| Ki | Compound |
| --- | --- |
| 0.03 nM | COc1ccc2c(c1)C(=O)N(C[C@@]1(C#Cc3ccc(C4(C)NC(=O)NC4=O)cc3)NC(=O)NC1=O)C2 (stereo partly shown) [Compound 1256] |
| 0.094 nM | CCNc1nnc(-c2ccc(C#C[C@]3(CN4Cc5ccc(OC)cc5C4=O)NC(=O)NC3=O)cn2)o1 [Compound 1502] |
